Data: patent US11957671B2, “Benzodioxane modulators of leukotriene A4 hydrolase (LTA4H) for prevention and treatment of aging-associated diseases” (Alkahest, Inc., priority 2021, dated 2024)

Assays:
[1] = test system: purified endothelial cells from the brains of aged C57BL/6 mice; assay: Microbulk qPCR of endothelial genes; format: in vivo, mouse; details: 1 month bid P.O., 1 mg/kg Compound 1 or 2.5 mg/kg SC57461A
Description: (§1) Downregulation of the detrimental genes Bsg, Gbp4, and CXCL12 in purified endothelial cells from the brains of mice treated with LTA4H inhibitors Compound 1 or SC57461A were compared to those of vehicle treated mice. Gene expression was measured by qPCR from 500 sorted endothelial cells and was normalized to GAPDH control.
Aged C57BL/6 mice (21 months of age) were treated for 1 month bid P.O. with vehicle, 1 mg/kg Compound 1, or 2.5 mg/kg SC57461A (n=3 mice per treatment group). One cortical cap (cortex and hippocampus) from each mouse was isolated and cells were dissociated using Miltenyi Neutral Dissociation Kit (#130-092-628). Cells were sorted using Sony Multi-Application Cell Sorter MA900 into clean, RNAase free 200 uL PCR strip tube with 5 uL RNAlater at a concentration of 500 cells per tube. RNA was isolated follow kit protocol for Qiagen RNeasy Micro Kit (#74004). cDNA was synthesized using SuperScript III Kit Protocol and qPCR assays were run using TaqMan or SYBR green primers.
as §1, with “beneficial gene, Plat,” for “detrimental genes Bsg, Gbp4, and CXCL12”

aged C57BL/6 mice [2] = assay: Unbiased single cell RNA sequencing of brain tissue; format: in vivo, mouse; details: 2.5 mg/kg bid P.O. 1 month
Description: Aged C57BL/6 mice (21 months of age) were treated for 1 month bid P.O. with vehicle or 2.5 mg/kg SC57461A (n=3 mice per treatment group). One cortical cap (cortex and hippocampus) from each mouse was isolated and cells were dissociated and sorted using Sony Multi-Application Cell Sorter MA900. Unbiased RNA sequencing from single brain cells were analyzed according to techniques described previously (Yousf H, et al., Bio Protoc., 8(22):e3091 (2018), which is herein incorporated by reference in its entirety).

[3] = test system: brain endothelial cells of aged C57BL/6 mice; assay: Single cell RNA sequencing of brain endothelial cells (BECs); format: in vivo, mouse
Description: Male C57BL/6 mice aged 20-21 months were treated with Vehicle or SC-57461A commercially available LTA4H inhibitor. The mice were dosed with SC-57461A at 2.5 mg/kg PO bid for one month. Mice were anesthetized and blood and tissues were collected for further analysis. Blood was collected via cardiac puncture in syringes pre-filled with Heparin. Brains were collected following ACSF perfusion and processed for single cell RNA sequencing of labeled endothelial cells.
Brain endothelial cells (BECs) were sorted, sequenced, and analyzed based on techniques known to those having ordinary skill in the art. […] Gates were determined to separate CD31-positive, CD11b-negative endothelial cells from CD11b-positive, CD31-negative microglia. […]
Aged C57BL/6 mice (21 months of age) were treated for 1 month bid P.O. with vehicle, 1 mg/kg Compound 1, or 2.5 mg/kg SC57461A (n=3 mice per treatment group). Brain endothelial cells were sorted, sequenced and analyzed as described in Example 12 (See Chen M B, et al., Cell Rep, 30(13):4418-32e4 (2020) which is herein incorporated by reference in its entirety).
GO terms are generated using the g:Profiler Web server (https://bitt.cs.ut.ee/gprofiler) to analyze differential regulated gene lists. Reported are the top 20 gene ontology (GO terms) terms from the biological process category, sorted by significance as determined by P-value. […]

[4] = test system: hippocampal neurons of aged C57BL/6 mice; assay: Single cell RNA sequencing of NeuN+ hippocampal nuclei (CA1, DG); format: in vivo, mouse
Description: Aged C57BL/6 mice (21 months of age) were treated for 1 month bid po with vehicle, 1 mg/kg Compound 1, or 2.5 mg/kg SC57461A (n=3 mice per treatment group). NucSeq For Mouse Brain Tissue protocol from 10× Genomics was used to isolate mouse hippocampus nuclei. Approximately 65 mg of brain tissue were used per treatment. Nonidet P40 was used to lyse cell walls and isolated nuclei were stained with Draq5 and NeuN antibodies for FACS sorting. Approximately 5,000 nuclei were collected for each sample. Eight samples were collected for each treatment for a total of 40,000 nuclei per treatment. These samples were prepped for sequencing using the 10× Genomics Chromium Next GEM kit.
GO terms are generated using the g:Profiler Web server (https://bitt.cs.ut.ee/gprofiler) to analyze differential regulated gene lists. Reported are the top 20 gene ontology (GO terms) terms from the biological process category, sorted by significance as determined by P-value. This list was filtered to report significant GO terms that include less than 1000 genes.

aged C57BL/6 mice [5] = assay: Long term potentiation (LTP) in hippocampal slices; format: in vivo, mouse; details: 1 month bid po, 1 mg/kg Compound 1 or 2.5 mg/kg SC57461A
Description: Aged C57BL/6 mice (21 months of age) were treated for 1 month bid po with vehicle, 1 mg/kg Compound 1, or 2.5 mg/kg SC57461A (n=5 mice per treatment group). Electrophysical recordings were performed at AfaSci, Inc, as follows. Animals were deeply anesthetized with halothane and decapitated. The brain was quickly taken out and placed into ice-cold artificial cerebrospinal fluid (ACSF) that was continuously bubbled with 5% CO2/95% O2. The ACSF was composed of (in mM) NaCl 130.0, KCl 2.5, KH2PO4 1.2, CaCl2 2.4, MgSO4 1.3, NaHCO326.0 and glucose 10.0 (pH 7.4). Hippocampal slices (400 μm thick) were prepared using a tissue slicer (Stoelting Co., IL) and incubated at room temperature in continuously oxygenated ACSF for at least 1 h before being recorded with submerged mode in chamber (Harvard Apparatus) at room temperature. Data were collected with an Axopatch-2B amplifier and pClamp 10.4 program (Axon Instruments) through digidata 1320A.
Field population spike (PS) was recorded using glass microelectrode filled with ACSF (resistance: 1-3 MO). Biphasic current pulses (0.2 ms duration for one phase, 0.4 ms in total) were delivered in 10 s intervals through a concentric bipolar stimulating electrode (FHC, Inc.). […] To record field population spikes in dorsal dentate gyrus, the stimulating electrode was placed on the hippocampal fissure to stimulate the bypassing perforant pathway fibers and the recording electrode was placed on inner part of granular cell layer. To record field EPSPs in DG, the stimulating electrode was placed on the hippocampal fissure to stimulate the bypassing perforant pathway fibers and the recording electrode was placed on inner part of granular cell layer. Slices were recorded within 8 hours after dissection. Titanic stimulation consisted of 2 trains of 100 pulses (0.4 ms bipolar pulse duration, 100 Hz) lasting for 1 second with 5 seconds of interval. The slope of EPSP and amplitude of population spike were measured from the initial phase of negative wave with Clampfit10.4. Each data point was measured with average of 3 consecutive traces. LTP was plotted as the percentage to baseline following high frequency stimulation (mean±SEM).

aged mice = assay: CA1 synapse density by histology; format: in vivo, mouse; details: preliminary data, pre- and post-synaptic protein staining
mice = details: previous studies; cited from earlier work
[6] = 1 month bid po, 1 mg/kg Compound 1 or 2.5 mg/kg SC57461A

With `CN(CCCOc1ccc(Cc2ccccc2)cc1)CCC(=O)O.Cl` [SC-57461A, reference compound] the Bsg gene expression [1] was “down regulation of Bsg gene expression”, the CXCL12 gene expression [1] was “down regulation of CXCL12 gene expression” and the Gpb4 gene expression [1] was “down regulation of Gpb4 gene expression”. For the same molecule, the Plat gene expression [1] was “up regulation of Plat gene expression”, the “Biological Process GO terms, astrocytes” value (aged C57BL/6 mice [2]) was “changes to astrocytes” and the “Biological Process GO terms, endothelial” value (aged C57BL/6 mice [2]) was “changes to endothelial”. The “Biological Process GO terms, pericytes” value (aged C57BL/6 mice [2]) was “changes to pericyte”, the astrocyte gene changes (aged C57BL/6 mice [2]) was “many significant gene changes to astrocytes” and the “endothelial cell gene changes” value (aged C57BL/6 mice [2]) was “many significant gene changes to brain endothelial cells”. The pericyte gene changes (aged C57BL/6 mice [2]) was “many significant gene changes to pericytes”, the “Biological Process GO terms, BECs” value ([3]; 2.5 mg/kg PO bid one month) was “changes to the endothelial milieu” and the “endothelial cell gene changes, enriched brain endothelial cells” value ([3]; 2.5 mg/kg bid P.O. 1 month) was “many significant gene changes to brain endothelial cells”. The “CA1 neuronal gene changes” value [4, 6] was “many significant gene changes to neurons in the CA1 region of the hippocampus”, the “DG neuronal gene changes” value [4, 6] was “many significant gene changes to neurons in the DG region of the hippocampus” and the “Dcc gene expression in the dentate gyrus” value [4, 6] was “not significantly impacted”. For the same molecule, the “Spock3 gene expression in the dentate gyrus” value [4, 6] was “not significantly impacted”, the “Biological Process GO terms, CA1 hippocampal neurons” value ([4]; long-term treatment) was “changes to synapses” and the “Biological Process GO terms, DG hippocampal neurons” value ([4]; long-term treatment) was “changes to synapses”. For the same molecule, the “LTP, CA1 region of the hippocampus” value (aged C57BL/6 mice [5]) was “did not show the same LTP increase”, the “LTP, DG region of the hippocampus” value (aged C57BL/6 mice [5]) was “did not show the same LTP increase” and the “synapse density in the CA1 region of the hippocampus” value (aged mice) was “no trend in increased CA1 synapse density”. The memory domains improved (mice) was “only improved spatial memory”.
